Experimental data published in BindingDB's records for patent US10202390 (Bristol-Myers Squibb Co., 2019).

Biological target: T1, Interleukin-1 receptor-associated kinase 4 (Homo sapiens, UniProt Q9NWZ3)
T1 sequence (Q9NWZ3 whole entry): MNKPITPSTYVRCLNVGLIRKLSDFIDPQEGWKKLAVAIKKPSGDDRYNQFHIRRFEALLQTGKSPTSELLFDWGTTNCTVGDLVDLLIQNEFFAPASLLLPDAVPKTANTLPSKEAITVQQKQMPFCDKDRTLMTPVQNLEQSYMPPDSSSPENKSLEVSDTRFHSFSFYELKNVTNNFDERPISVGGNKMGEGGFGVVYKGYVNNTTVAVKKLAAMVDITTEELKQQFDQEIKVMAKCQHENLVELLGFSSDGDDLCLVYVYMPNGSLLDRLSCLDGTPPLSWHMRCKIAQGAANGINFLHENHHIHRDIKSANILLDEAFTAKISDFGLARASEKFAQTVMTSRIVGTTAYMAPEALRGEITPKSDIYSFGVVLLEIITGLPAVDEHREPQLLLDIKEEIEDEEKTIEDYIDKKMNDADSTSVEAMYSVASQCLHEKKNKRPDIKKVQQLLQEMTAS
Assay: Not found
Excerpt: Not found

IC50 [nM]	Compound
63	CC(C)Nc1cc(-c2cnc3cc(Cl)cnn23)ncc1-c1cnn(C2CCOCC2)c1 [US10202390, Example 2]
10	CC(C)(O)CCc1cn(-c2cnc(-c3cnn4cc(C#N)cnc34)cc2NC2COC2)nn1 [US10202390, Example 26]
